Assay results taken from US12491170B2, “Stable treprostinil prodrugs” (United Therapeutics Corporation, priority 2020, dated 2025).
Like-named read-outs stand apart in the source and are kept apart here. Each block holds one compound with its values, some of them ahead of it.

Columns and labels:
[1] = target: prostaglandin I2 (PGI2) receptor (IP) (Homo sapiens, UniProt P43119); experiment: IP receptor cAMP agonist assay (CHO-K1 cells); assay type: cell-based; settings: relative to treprostinil EC50 values, * partial agonists or ambiguous dose-response curves
Sequence of prostaglandin I2 (PGI2) receptor (IP) (P43119 whole entry): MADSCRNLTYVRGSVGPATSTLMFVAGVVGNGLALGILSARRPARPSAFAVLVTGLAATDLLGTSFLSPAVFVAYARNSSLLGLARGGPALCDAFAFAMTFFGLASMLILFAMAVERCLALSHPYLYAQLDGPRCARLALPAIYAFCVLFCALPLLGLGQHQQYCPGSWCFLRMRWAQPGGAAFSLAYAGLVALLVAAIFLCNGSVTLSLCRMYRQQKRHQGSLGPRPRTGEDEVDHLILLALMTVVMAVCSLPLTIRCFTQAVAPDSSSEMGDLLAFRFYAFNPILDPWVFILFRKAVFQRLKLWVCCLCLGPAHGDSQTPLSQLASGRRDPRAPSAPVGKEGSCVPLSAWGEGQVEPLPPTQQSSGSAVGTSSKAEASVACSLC
Protocol: (§1) Cyclic AMP assay kit: Multiscreen™ TR-FRET cAMP 1.0 No Wash Assay Kit (Multispan, Inc.)
(§2) Cells were thawed from frozen cells and resuspended in assay buffer at desired concentrations. cAMP or Calcium assays were performed according to the manufacturer's protocol using Multiscreen™ TR-FRET cAMP 1.0 No Wash Assay Kit or Multiscreen™ Calcium 1.0 No Wash Kit.
(§3) Gas Cyclic AMP (cAMP) Assay: In agonist mode testing, cells were seeded in a 384-well plate at an appropriate density and then were treated with compounds and incubated at 37° C. for 20 minutes. The reaction was terminated by […] trFluor™ Eu-labeled cAMP and trFluor™ 650-labeled anti-cAMP antibody in lysis buffer. […] All testing wells contained 0.1% DMSO in the final concentrations.
(§4) Data in graphs are represented in Mean±SD. Dose-dependent responses were fitted with sigmoidal dose-response curves allowing variable slopes using GraphPad Prism version 6 (Graphpad Prism).
(§5) These studies used cell lines overexpressing either human IP, EP2 or DP1, or EP1 receptors, and following incubation with varying concentrations of compounds, cAMP levels were measured using Fluorescence Resonance Energy Transfer (FRET).

[2] = target: prostaglandin E2 (PGE2) receptor 2 (EP2) (Homo sapiens, UniProt P43116); experiment: EP2 receptor cAMP agonist assay (HEK293T cells); assay type: cell-based; settings: for EP2 Relative to Tre: Table 22, relative to treprostinil EC50 values, * partial agonists or ambiguous dose-response curves
Sequence of prostaglandin E2 (PGE2) receptor 2 (EP2) (P43116 whole entry): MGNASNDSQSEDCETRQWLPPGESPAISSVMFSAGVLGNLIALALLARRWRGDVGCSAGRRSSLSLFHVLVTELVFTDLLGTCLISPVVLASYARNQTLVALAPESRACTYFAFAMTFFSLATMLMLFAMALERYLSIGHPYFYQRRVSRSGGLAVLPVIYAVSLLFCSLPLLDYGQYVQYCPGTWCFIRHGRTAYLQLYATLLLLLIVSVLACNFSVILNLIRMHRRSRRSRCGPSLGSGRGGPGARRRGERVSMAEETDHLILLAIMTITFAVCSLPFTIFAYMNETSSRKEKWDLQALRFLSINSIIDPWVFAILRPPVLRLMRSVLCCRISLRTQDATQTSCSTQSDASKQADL
Protocol: as §1, §2, §3, §4, §5

[3] = target: T1, prostaglandin D2 (PGD2) receptor 1 (DP1) (Homo sapiens, UniProt Q13258); experiment: DP1 receptor cAMP agonist assay (HEK293T cells); assay type: cell-based; settings: for DP1 Relative to Tre: relative to treprostinil EC50 values, * partial agonists or ambiguous dose-response curves
T1 sequence (Q13258 1-359): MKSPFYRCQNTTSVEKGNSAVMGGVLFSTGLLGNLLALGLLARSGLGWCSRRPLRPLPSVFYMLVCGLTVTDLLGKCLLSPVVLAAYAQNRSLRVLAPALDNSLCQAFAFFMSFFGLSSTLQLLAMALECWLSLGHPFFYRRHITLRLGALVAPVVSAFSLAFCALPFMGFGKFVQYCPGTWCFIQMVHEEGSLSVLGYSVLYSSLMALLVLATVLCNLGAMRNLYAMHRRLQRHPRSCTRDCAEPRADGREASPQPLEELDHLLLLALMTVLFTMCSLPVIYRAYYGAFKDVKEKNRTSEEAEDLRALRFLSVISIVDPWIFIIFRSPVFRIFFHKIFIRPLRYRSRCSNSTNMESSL
Protocol: as §1, §2, §3, §4, §5

[4] = Hydrolysis of prodrugs to treprostinil at pH 6, 7, 8 and 40 C; assay type: physicochemical
Source text: Tables 24, 25 and 26 present data for hydrolysis of selected treprostinil prodrugs at pH 6, 7 and 8, respectively, and 40 C.

[5] = Stability in human subcutaneous skin homogenate
[6] = Stability in liver microsomes, human; settings: for AUC: human
[7] = Stability in liver microsomes, rat
[8] = Stability in liver microsomes, dog
[9] = Stability in cryopreserved hepatocytes, human; settings: for AUC: human
[10] = Stability in cryopreserved hepatocytes, rat; settings: for AUC: rat
[11] = Stability in cryopreserved hepatocytes, dog; settings: for AUC: dog
[12] = rat
[13] = dog

AUC ([5]; human): 2.744 µmol·min/L
Mono AUC (treprostinil formed) ([5]; human): 2.744 µmol·min/L
Percent Remaining (Avg, n = 3) 0 min ([5]; pooled human skin homogenate, 1 μM, 37° C., 0 min): 100%
Percent Remaining (Avg, n = 3) 30 min ([5]; pooled human skin homogenate, 1 μM, 37° C., 30 min): 86.2%
Percent Remaining (Avg, n = 3) 60 min ([5]; pooled human skin homogenate, 1 μM, 37° C., 60 min): 71.2%
Percent Remaining (Avg, n = 3) 120 min ([5]; pooled human skin homogenate, 1 μM, 37° C., 120 min): 64.0%
IP Relative to Tre ([1]; Table 22): 208x
IP Relative to Tre ([1]; Table 23): 208x
Activity at the EP2 receptor compared to treprostinil ([2]; summary of findings): inactive
DP1 Relative to Tre ([3]; Table 22): 217x
DP1 Relative to Tre ([3]; Table 23): 217x
Activity at the DP1 receptor compared to treprostinil ([3]; summary of findings): several hundred-fold less active
Hydrolysis to treprostinil, % Area, t = 1 week ([4]; pH 6, 40 C.): 0.00 % Area
Hydrolysis to treprostinil, % Area, t = 2 weeks ([4]; pH 6, 40 C.): 0.00 % Area
Hydrolysis to treprostinil, % Area, t = 3 weeks ([4]; pH 6, 40 C.): 0.00 % Area
Hydrolysis to treprostinil, % Area, t = 1 week ([4]; pH 7, 40 C.): 0.00 % Area
Hydrolysis to treprostinil, % Area, t = 2 weeks ([4]; pH 7, 40 C.): 0.00 % Area
Hydrolysis to treprostinil, % Area, t = 3 weeks ([4]; pH 7, 40 C.): 0.00 % Area
Hydrolysis to treprostinil, % Area, t = 1 week ([4]; pH 8, 40 C.): 0.00 % Area
Hydrolysis to treprostinil, % Area, t = 2 weeks ([4]; pH 8, 40 C.): 0.00 % Area
Hydrolysis to treprostinil, % Area, t = 3 weeks ([4]; pH 8, 40 C.): 0.00 % Area
Compound: treprostinil diphosphate [Prodrug LXXIII]

Trep Concentration 0 min [6]: 0 µM
Trep Concentration 10 min [6]: 0 µM
Trep Concentration 20 min [6]: 0 µM
Trep Concentration 30 min [6]: 0 µM
Trep Concentration 60 min [6]: 0 µM
AUC [6]: 0.00 µmol·min/L
Trep Concentration 0 min [7]: 0.0107 µM
Trep Concentration 10 min [7]: 0.0193 µM
Trep Concentration 20 min [7]: 0.0291 µM
Trep Concentration 30 min [7]: 0.0305 µM
Trep Concentration 60 min [7]: 0.0498 µM
Trep Concentration 0 min [8]: 0.0247 µM
Trep Concentration 10 min [8]: 0.0494 µM
Trep Concentration 20 min [8]: 0.0751 µM
Trep Concentration 30 min [8]: 0.0888 µM
Trep Concentration 60 min [8]: 0.13 µM
Trep Concentration (μM) 0 min [9]: 0 µM
Trep Concentration (μM) 15 min [9]: 0.0192 µM
Trep Concentration (μM) 30 min [9]: 0.0265 µM
Trep Concentration (μM) 60 min [9]: 0.0464 µM
Trep Concentration (μM) 120 min [9]: 0.0728 µM
AUC [9]: 5.16 µmol·min/L
Trep Concentration (μM) 0 min [10]: 0 µM
Trep Concentration (μM) 15 min [10]: 0.0753 µM
Trep Concentration (μM) 30 min [10]: 0.132 µM
Trep Concentration (μM) 60 min [10]: 0.18 µM
Trep Concentration (μM) 120 min [10]: 0.238 µM
AUC [10]: 19.34 µmol·min/L
Trep Concentration (μM) 0 min [11]: 0 µM
Trep Concentration (μM) 15 min [11]: 0.0287 µM
Trep Concentration (μM) 30 min [11]: 0.03796 µM
Trep Concentration (μM) 60 min [11]: 0.0584 µM
Trep Concentration (μM) 120 min [11]: 0.0754 µM
AUC [11]: 6.18 µmol·min/L
Trep Concentration 0 min [5]: 0 µM
Trep Concentration 30 min [5]: 0 µM
Trep Concentration 60 min [5]: 0 µM
Trep Concentration 120 min [5]: 0 µM
AUC ([5]; human): 0.00 µmol·min/L
AUC [12]: 1.90 µmol·min/L
AUC [13]: 5.10 µmol·min/L
Compound: CCCCCC(CCC1C(O)CC2Cc3c(cccc3OCC(=O)O)CC21)OC(=O)CCC(=O)N1CCOCC1 (stereo not shown) [XXXIII]

More lines, now with the values behind:

Compound: CCCCCC(CCC1C(O)CC2Cc3c(cccc3OCC(=O)O)CC21)OC(=O)C(C)C (stereo not shown) [Prodrug LXVII]
IP Relative to Tre ([1]; Table 22): 148x
EP2 Relative to Tre [2]: 34x*
DP1 Relative to Tre ([3]; Table 22): 184x
Hydrolysis to treprostinil, % Area, t = 1 week ([4]; pH 6, 40 C.): 0.00 % Area
Hydrolysis to treprostinil, % Area, t = 2 weeks ([4]; pH 6, 40 C.): 0.00 % Area
Hydrolysis to treprostinil, % Area, t = 3 weeks ([4]; pH 6, 40 C.): 0.00 % Area
Hydrolysis to treprostinil, % Area, t = 1 week ([4]; pH 7, 40 C.): 0.00 % Area
Hydrolysis to treprostinil, % Area, t = 2 weeks ([4]; pH 7, 40 C.): 0.00 % Area
Hydrolysis to treprostinil, % Area, t = 3 weeks ([4]; pH 7, 40 C.): 0.00 % Area
Hydrolysis to treprostinil, % Area, t = 1 week ([4]; pH 8, 40 C.): 0.00 % Area
Hydrolysis to treprostinil, % Area, t = 2 weeks ([4]; pH 8, 40 C.): 0.23 % Area
Hydrolysis to treprostinil, % Area, t = 3 weeks ([4]; pH 8, 40 C.): 0.27 % Area

Compound: CCCCCC(CCC1C(O)CC2Cc3c(cccc3OCC(=O)O)CC21)OC(=O)C12CC3CC(CC(C3)C1)C2 (stereo not shown) [Prodrug LXIX]
IP Relative to Tre ([1]; Table 22): 1470x*
EP2 Relative to Tre [2]: 236x*
DP1 Relative to Tre ([3]; Table 22): 1897x
Hydrolysis to treprostinil, % Area, t = 1 week ([4]; pH 6, 40 C.): 0.00 % Area
Hydrolysis to treprostinil, % Area, t = 2 weeks ([4]; pH 6, 40 C.): 0.00 % Area
Hydrolysis to treprostinil, % Area, t = 3 weeks ([4]; pH 6, 40 C.): 0.00 % Area
Hydrolysis to treprostinil, % Area, t = 1 week ([4]; pH 7, 40 C.): 0.00 % Area
Hydrolysis to treprostinil, % Area, t = 2 weeks ([4]; pH 7, 40 C.): 0.00 % Area
Hydrolysis to treprostinil, % Area, t = 3 weeks ([4]; pH 7, 40 C.): 0.00 % Area
Hydrolysis to treprostinil, % Area, t = 1 week ([4]; pH 8, 40 C.): 0.00 % Area
Hydrolysis to treprostinil, % Area, t = 2 weeks ([4]; pH 8, 40 C.): 0.00 % Area
Hydrolysis to treprostinil, % Area, t = 3 weeks ([4]; pH 8, 40 C.): 0.00 % Area

Compound: CCCCCC(CCC1C(O)CC2Cc3c(cccc3OCC(=O)O)CC21)OC(=O)COc1ccc(OC(F)(F)F)cc1 (stereo not shown) [LXIV]
Trep Concentration 0 min [6]: 0.911 µM
Trep Concentration 10 min [6]: 0.752 µM
Trep Concentration 20 min [6]: 0.667 µM
Trep Concentration 30 min [6]: 0.596 µM
Trep Concentration 60 min [6]: 0.351 µM
AUC [6]: 35.93 µmol·min/L
Trep Concentration 0 min [7]: 0.803 µM
Trep Concentration 10 min [7]: 0.882 µM
Trep Concentration 20 min [7]: 0.91 µM
Trep Concentration 30 min [7]: 0.902 µM
Trep Concentration 60 min [7]: 0.753 µM
Trep Concentration 0 min [8]: 0.453 µM
Trep Concentration 10 min [8]: 0.548 µM
Trep Concentration 20 min [8]: 0.592 µM
Trep Concentration 30 min [8]: 0.603 µM
Trep Concentration 60 min [8]: 0.627 µM
Trep Concentration (μM) 0 min [9]: 0.0116 µM
Trep Concentration (μM) 15 min [9]: 0.521 µM
Trep Concentration (μM) 30 min [9]: 0.509 µM
Trep Concentration (μM) 60 min [9]: 0.458 µM
Trep Concentration (μM) 120 min [9]: 0.411 µM
AUC [9]: 52.29 µmol·min/L
Trep Concentration (μM) 0 min [10]: 0.0456 µM
Trep Concentration (μM) 15 min [10]: 0.374 µM
Trep Concentration (μM) 30 min [10]: 0.291 µM
Trep Concentration (μM) 60 min [10]: 0.234 µM
Trep Concentration (μM) 120 min [10]: 0.206 µM
AUC [10]: 29.21 µmol·min/L
Trep Concentration (μM) 0 min [11]: 0.0196 µM
Trep Concentration (μM) 15 min [11]: 0.466 µM
Trep Concentration (μM) 30 min [11]: 0.514 µM
Trep Concentration (μM) 60 min [11]: 0.485 µM
Trep Concentration (μM) 120 min [11]: 0.451 µM
AUC [11]: 54.06 µmol·min/L
Trep Concentration 0 min [5]: 0 µM
Trep Concentration 30 min [5]: 0.0793 µM
Trep Concentration 60 min [5]: 0.155 µM
Trep Concentration 120 min [5]: 0.283 µM
AUC ([5]; human): 17.84 µmol·min/L
AUC [12]: 51.27 µmol·min/L
AUC [13]: 35.13 µmol·min/L
